Results as given in the supplement of paper PMC9938120.

Test system: FMOC25_1 (patient-derived low-grade serous ovarian cancer cells)
Experiment: drug sensitivity score (DSS3, normalised partial AUC of % inhibition dose-response) (DSS (score)); higher = more sensitive (stronger inhibition of viability); extreme values may be limits of the assay
Settings: 72 h; library: FO4B; assay format: 2D, 384-well, CellTiter-Glo
Method in brief: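 Patient-derived ovarian cancer cells (early passage, under 10) were dispensed onto 384-well flat clear-bottom plates pre-plated with compounds at five concentrations covering a 10,000-fold range. Plates were incubated 72 h at 37 °C, 5% CO2, and viability was read with CellTiter-Glo. Data were processed in Breeze. The drug sensitivity score (DSS3) is a partial area under the percent-inhibition dose-response curve, divided by the log of the upper asymptote; higher means more sensitive.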

Row | SMILES | drug sensitivity score
1 | CCNC(=O)Nc1ccc(-c2nc3c(c(N4CCOC[C@@H]4C)n2)CCN(C2COC2)C3)cc1 [RG-7603] | 7.8
2 | CCN(CC)C(=S)SSC(=S)N(CC)CC [Disulfiram] | 3.7
3 | Cc1csc(-c2nnc(Nc3ccc(Oc4ncccc4-c4ccnc(N)n4)cc3)c3ccccc23)c1 [AMG-900] | 0.8
4 | COc1cc2c(Nc3ccc(Cl)c(Cl)c3F)ncnc2cc1OC[C@@H]1C[C@@H]2CN(C)C[C@@H]2C1 [XL-647] | 9.1
5 | C/C(=C\c1csc(C)n1)[C@@H]1C[C@@H]2O[C@]2(C)CCC[C@H](C)[C@H](O)[C@@H](C)C(=O)C(C)(C)[C@@H](O)CC(=O)O1 [Patupilone] | 9.3
6 | Cc1nc(N)sc1-c1ccnc(Nc2ccc(N3CCOCC3)cc2)n1 [CYC-116] | 6.4
7 | COc1cc(C(=O)NC2CCN(C)CC2)c(F)cc1Nc1ncc2c(n1)N(C1CCCC1)CC(F)(F)C(=O)N2C [TAK-960] | 0
8 | O=C(CCBr)N1CCN(C(=O)CCBr)CC1 [Pipobroman] | 1.6
9 | CN(C)c1nc(N(C)C)nc(N(C)C)n1 [Altretamine] | 0
10 | COCC(=O)NC/C=C/c1ccc2ncnc(Nc3ccc(Oc4ccc(C)nc4)c(C)c3)c2c1 | 3.2
11 | COC1=CC(c2cc3ccccc3[nH]2)=N/C1=C\c1[nH]c(C)cc1C [Obatoclax] | 1.8
12 | O=P1(N(CCCl)CCCl)NCCCO1 (configuration not stated) [Cyclophosphamide] | 0
13 | CNC(=O)c1cccc(-c2ccc3c(N4CCOC[C@@H]4C)nc(N4CCOC[C@@H]4C)nc3n2)c1 [AZD2014] | 20.5
14 | Cc1cc(C)c(/C=C2\C(=O)Nc3ccccc32)[nH]1 [Semaxanib] | 4.4
15 | O=[N+]([O-])c1ccc2c(c1)S(=O)(=O)C=C2 [Stattic] | 6.3
16 | C=CCn1c(=O)c2cnc(Nc3ccc(N4CCN(C)CC4)cc3)nc2n1-c1cccc(C(C)(C)O)n1 [MK1775] | 11.5
17 | CCc1c2c(nc3ccc(OC(=O)N4CCC(N5CCCCC5)CC4)cc13)-c1cc3c(c(=O)n1C2)COC(=O)[C@]3(O)CC [Irinotecan] | 5.1
18 | OCCn1cc(-c2cnc3nnn(Cc4ccc5ncccc5c4)c3n2)cn1 | 0
19 | Cc1[nH]c(/C=C2\C(=O)Nc3ccccc32)c(C)c1CCC(=O)O [Orantinib] | 2.6

Row | SMILES | drug sensitivity score
20 | O=c1ncn2nc(Sc3ccc(F)cc3F)ccc2c1-c1c(Cl)cccc1Cl [VX 745] | 0
21 | CC(=O)c1cnc2ccc(-c3cc(Cl)c(O)c(Cl)c3)nc2c1N[C@H]1CC[C@H](CN(C)C)CC1 [OTSSP167] | 7.7
22 | Cn1nccc1Nc1nccc(-c2ccn([C@H](CO)c3ccc(Cl)c(F)c3)c(=O)c2)n1 [GDC-0994] | 6
23 | O=C(Nc1cccc(C(F)(F)F)c1)Nc1cc(S(=O)(=O)NC2CC2)ccc1-c1ccsc1 [AGI-6780] | 0.4
24 | CN(C)/N=N/c1[nH]cnc1C(N)=O [Dacarbazine] | 0
25 | CNC(=O)c1ccc(N2C(=S)N(c3ccc(C#N)c(C(F)(F)F)c3)C(=O)C23CCC3)cc1F [RD162] | 0
26 | C[C@]12CC[C@@H]3c4ccc(OC(=O)N(CCCl)CCCl)cc4CC[C@H]3[C@@H]1CC[C@@H]2O [Estramustine] | 0
27 | O=C1NC(=O)/C(=C/c2ccc3nccc(-c4ccncc4)c3c2)S1 | 9.8
28 | CC(C)NC(=O)COc1cccc(-c2nc(Nc3ccc4[nH]ncc4c3)c3ccccc3n2)c1 [SLx-2119] | 2.7
29 | CC(=O)NCC(=O)N1[C@@H]2CC[C@H]1c1ccc(Nc3ncc(C(F)(F)F)c(NC4CCC4)n3)cc12 | 9.1
30 | CN[C@@H](C)C(=O)N[C@H](C(=O)N1CCC[C@H]1c1nc(C(=O)c2ccc(F)cc2)cs1)C1CCCCC1 [LCL161] | 7.7
31 | O=C(Cc1ccc(-c2ccc(OCCN3CCOCC3)cc2)cn1)NCc1ccccc1 [KX2-391] | 12.7
32 | c1ccc(Cn2c(-c3ccc(OC[C@H](C4CCNCC4)n4c(-c5ccccc5)nc5ccccc54)cc3)nc3ccccc32)cc1 [deltarasin] | 5.5
33 | Cc1ccccc1C(C(=O)NC1CCCCC1)N(C(=O)Cn1ccnc1C)c1cccc(F)c1 (configuration not stated) [AGI-5198] | 0
34 | CC(C)n1nc(-c2ccc3oc(N)nc3c2)c2c(N)ncnc21 [MLN-0128] | 21
35 | C[C@]12O[C@H](C[C@]1(O)CO)n1c3ccccc3c3c4c(c5c6ccccc6n2c5c31)CNC4=O [Lestaurtinib] | 5.3
36 | CCCCC/C=C/C=C1/C(=O)C=C[C@@H]1C/C=C\CCCC(=O)O [15D-PGJ2] | 0
37 | c1ccc2c(CCNc3ccc(Nc4ccncc4)cc3)c[nH]c2c1 [Serdemetan] | 3.4
38 | O=C(NOCC1CC1)c1ccc(F)c(F)c1Nc1ccc(I)cc1Cl | 7.5

Row | SMILES | drug sensitivity score
39 | Cc1sc2c(c1C)C(c1ccc(Cl)cc1)=N[C@@H](CC(=O)Nc1ccc(O)cc1)c1nnc(C)n1-2 [OTX015] | 6.3
40 | CCn1c(=O)c(-c2cc[nH]n2)cc2c(C)nc(N)nc21 [Voxtalisib] | 10.6
41 | CCCNC(=O)Nc1ccc(Oc2ncnc3cc(OC)c(OC)cc23)cc1Cl [KRN-633] | 0
42 | CNC(=O)c1ccc(-c2cnc3ncc(Cc4ccc5ncccc5c4)n3n2)cc1F [NVP-INC280] | 0
43 | CC(C)CC(=O)Nc1n[nH]c2c1CN(C(=O)C1CCN(C)CC1)C2(C)C | 5.5
44 | COc1cccc2cc(-c3nc([C@H]4CC[C@H](C(=O)O)CC4)n4ncnc(N)c34)[nH]c12 [OSI-027] | 8.2
45 | COc1cc(O)c2c(c1)/C=C/C[C@H](O)[C@H](O)C(=O)/C=C\C[C@H](C)OC2=O [(5Z)-7-Oxozeaenol] | 0
46 | Cn1c(=O)c(F)c(Nc2ccc(I)cc2F)c2c(=O)n(C[C@@H](O)CO)cnc21 [TAK-733] | 13.2
47 | NC(=O)c1ccc(I)c([N+](=O)[O-])c1 [Iniparib] | 0
48 | C[C@]12C=CC(=O)C=C1CC[C@@H]1[C@@H]2C(=O)C[C@@]2(C)[C@H]1CC[C@]2(O)C(=O)CO [Prednisone] | 0
49 | O=c1cc(N2CCOCC2)oc2c(-c3ccccc3)cccc12 | 9.1
50 | CC[C@@]1(O)C(=O)OCc2c1cc1n(c2=O)Cc2cc3ccccc3nc2-1 [Camptothecin] | 17
51 | Cc1cc(-c2ncc(-c3cccnc3)cc2/C=C/c2ccccc2)cnc1-c1cccnc1 [Pyridoclax] | 5.5
52 | CCn1nnc2c(N3CCOCC3)nc(-c3ccc(NC(=O)Nc4ccc(C(=O)N5CCN(C)CC5)cc4)cc3)nc21 [PKI-402] | 19.1
53 | COc1cc2c(cc1O)CC[C@@H]1[C@@H]2CC[C@]2(C)[C@@H](O)CC[C@@H]12 [2-methoxyestradiol] | 4.1
54 | COCC[n+]1c2c(n(Cc3cnccn3)c1C)C(=O)c1ccccc1C2=O [YM155] | 35.5
55 | Cc1ccc2nc(CN(CCN(Cc3nc4ccc(C)cc4[nH]3)Cc3nc4ccc(C)cc4[nH]3)Cc3nc4ccc(C)cc4[nH]3)[nH]c2c1 | 3.9
56 | COc1ccc(C2=N[C@@H](c3ccc(Cl)cc3)[C@@H](c3ccc(Cl)cc3)N2C(=O)N2CCNC(=O)C2)c(OC(C)C)c1 [Nutlin-3] | 3.5
57 | O=C(Nc1ccc(OC(F)(F)F)cc1)c1sccc1NCc1ccnc2ccccc12 [OSI-930] | 0
